Patent US9102712B2, “Dendrimeric peptides, pharmaceutical compositions and methods of using the same” (New York University, priority 2010, dated 2015)
In brackets after ≈: the same amount, converted by molar mass. Square brackets hold non-standard residues; d marks the D form. Side chains are listed from the residue outwards. Peptide text beside a SMILES is read from it. * marks the point of attachment. ξ: configuration not given here. X1 = CC(C)(C)c1cc(C(C)(C)C)c2[nH]c(C(C)(C)C)c(CC(NC(=O)[C@@H](N)CCCNC(=N)N)C(=O)*)c2c1; Trp(2,5,7-tBu3) = CC(C)(C)c1cc(C(C)(C)C)c2[nH]c(C(C)(C)C)c(C[C@H](N)C(=O)O)c2c1; ξTrp(2,5,7-tBu3) = CC(C)(C)c1cc(C(C)(C)C)c2[nH]c(C(C)(C)C)c(CC(N)C(=O)O)c2c1; βAla = NCCC(=O)O

Assays:
E. coli (D31) = test: Antibacterial broth microdilution, E. coli; assay type: cell-based; details: for IC50 E. Coli D31 / E. Coli IC50: 50% inhibition of growth, MH broth, 18 hrs at 37° C.; for IC50 E. Coli D31: Table 3; for E. Coli IC50: Table 1
Procedure: (§1) The antibacterial activity of each dendrimer peptide was tested by following standard broth microdilution protocols recommended by the National Committee for Clinical Laboratory Standard (NCCLS 2004). Antibacterial testing was carried out on gram-negative bacteria E. coli (D31) and gram-positive bacteria S. aureus in liquid media Mueller Hinton (MH) Brooth according to literature procedures. Dendrimers were dissolved in PBS buffer (high salt, 150 mM NaCl; low salt, 75 mM NaCl), pH 7.4 to make series of stocks of 2-fold dilution. Cultures were grown overnight on Mueller Hinton (MH) agar plates, and 3 to 5 uniform colonies of each organism were transferred with an inoculating loop to test tubes containing MH broth, and incubated at 37° C. overnight, then diluted until the turbidity matched that of the 0.5 McFarland standard (approximately 1.5×10^8 cells/mL). The resulting solutions were further diluted to give approximately 2×10^4-2×10^5 CFU/mL. 100 μL of the bacterial inoculums were incubated in 96-well plates with varying volumes of stock solution and PBS buffer to bring the total volume to 200 μL. Solutions containing the same volumes of PBS buffer and MH Broth, with and without bacteria were used as controls. After these plates were incubated with shaking for 18 hrs at 37° C. to ensure the cultures had reached log phase growth, the absorbance readings were recorded at a wavelength of 600 nm using a Absorbance Microplate Reader BIO-TEK ELX800. The 18-hour absorbance data were used to calculate the percent inhibition for each test condition. All assays were carried out in triplicate. The experimental data were fitted to sigmoidal dose-response curves using GraphPad Prism (GraphPad Software Inc., San Diego, Calif., USA).

MRSA = assay type: cell-based, Methicillin-resistant Staphylococcus aureus; details: 18 h
Procedure: as §1

B. Subtilis = assay type: cell-based; details: 18 h
fresh sheep RBC = assay type: cell-based; details: red cells of sheep, 1 h
Procedure: Hemolytic activity of dendrimeric compounds were assessed on fresh sheep RBC (Fitzgerald, Inc., MA). Dendrimer concentrations corresponding to 50% hemolysis were used as hemolytic dose (HD50) determined from dose-response curve. The fresh sheep RBC was washed with PBS buffer (thrice) and aliquots of cell suspension were mixed in eppendorf tubes with varying volumes of stocks and buffer for a total volume of 400 μL. These tubes were incubated at 37° C. for 1 hr, and then spun down at 3,000 rpm for 5 mins. The resulting supernatant was trasferred to a 96-well plate and the absorbances at 540 nm were measured in an Absorbance Microplate Reader BIO-TEK ELX800. Zero hemolysis and 100% hemolysis controls were obtained by incubating the cells with buffer and 1% Triton X-100, respectively. Hemolytic index (HI) was defined as HI=HD50/IC50 (Table 1 and 3).

S. aureus = assay type: cell-based; details: for S. Aureus IC50: 18 h
Procedure: as §1

Row | SMILES | IC50 E. Coli D31 (E. coli (D31)) [µg/mL] | IC50 MRSA (MRSA) [µg/mL] | IC50 B. Subtilis (B. Subtilis) [µg/mL] | HD50 Hemolysis (fresh sheep RBC) [µg/mL] | E. Coli IC50 (E. coli (D31)) [µg/mL] | S. Aureus IC50 (S. aureus) [µg/mL] | Hemolysis HD50 (fresh sheep RBC) [µg/mL] | E. Coli HI (hemolytic index) (E. coli (D31); HI=HD50/IC50, E. coli) | S. Aureus HI (hemolytic index) (S. aureus; HI=HD50/IC50, S. aureus)
1 | CC(C)(C)c1cc(C(C)(C)C)c2[nH]c(C(C)(C)C)c(CC(NC(=O)[C@@H](N)CCCNC(=N)N)C(=O)N[C@@H](CCCNC(=N)N)C(=O)NCCCC[C@H](NC(=O)[C@H](CCCCNC(=O)[C@H](CCCNC(=N)N)NC(=O)[C@H](Cc3c[nH]c4ccccc34)NC(=O)[C@@H](N)CCCNC(=N)N)NC(=O)[C@H](CCCNC(=N)N)NC(=O)[C@H](Cc3c[nH]c4ccccc34)NC(=O)[C@@H](N)CCCNC(=N)N)C(=O)NCCC(N)=O)c2c1 (stereo partly drawn) [Dendrimer 3D-16] (H-RWRK([Arg-Trp-Arg])K([Arg-X1])[βAla]-NH2) | 0.4 (≈ 0.199 µM) | 5.2 (≈ 2.59 µM) | 0.9 (≈ 0.448 µM) | 201 | – | – | – | – | –
2 | CC(C)(C)c1cc(C(C)(C)C)c2[nH]c(C(C)(C)C)c(C[C@H](N)C(=O)N[C@@H](CCCNC(=N)N)C(=O)NCCCC[C@H](NC(=O)[C@H](CCCNC(=N)N)NC(=O)[C@@H](N)Cc3c(C(C)(C)C)[nH]c4c(C(C)(C)C)cc(C(C)(C)C)cc34)C(=O)N[C@@H](CCCCNC(=O)[C@H](CCCNC(=N)N)NC(=O)[C@@H](N)Cc3c[nH]c4ccccc34)C(=O)NCCC(N)=O)c2c1 [Dendrimer 3D-23] (H-[Trp(2,5,7-tBu3)]RK([Arg-Trp(2,5,7-tBu3)])K([Arg-Trp])[βAla]-NH2) | 2.4 (≈ 1.4 µM) | 0.7 (≈ 0.41 µM) | 2.1 (≈ 1.23 µM) | 99 | – | – | – | – | –
3 | CC(C)(C)c1cc(C(C)(C)C)c2[nH]c(C(C)(C)C)c(CC(NC(=O)[C@@H](N)CCCNC(=N)N)C(=O)N[C@@H](CCCNC(=N)N)C(=O)NCCCC[C@H](NC(=O)[C@H](CCCNC(=N)N)NC(=O)C(Cc3c(C(C)(C)C)[nH]c4c(C(C)(C)C)cc(C(C)(C)C)cc34)NC(=O)[C@@H](N)CCCNC(=N)N)C(=O)N[C@@H](CCCCNC(=O)[C@H](CCCNC(=N)N)NC(=O)[C@H](Cc3c[nH]c4ccccc34)NC(=O)[C@@H](N)CCCNC(=N)N)C(=O)NCCC(N)=O)c2c1 (stereo partly drawn) [Dendrimer 3D-26] (H-R[ξTrp(2,5,7-tBu3)]RK([Arg-X1])K([Arg-Trp-Arg])[βAla]-NH2) | 1.4 (≈ 0.643 µM) | 0.5 (≈ 0.23 µM) | 1.4 (≈ 0.643 µM) | 33 | – | – | – | – | –
4 | N=C(N)NCCC[C@H](NC(=O)[C@@H](N)Cc1c[nH]c2ccccc12)C(=O)NCCCC[C@H](NC(=O)[C@H](CCCNC(=N)N)NC(=O)[C@@H](N)Cc1c[nH]c2ccccc12)C(=O)NCCCC[C@H](NC(=O)[C@H](CCCCNC(=O)[C@H](CCCNC(=N)N)NC(=O)[C@@H](N)Cc1c[nH]c2ccccc12)NC(=O)[C@H](CCCNC(=N)N)NC(=O)[C@@H](N)Cc1c[nH]c2ccccc12)C(=O)NCCC(N)=O [Dendrimer 4D-04, reference compound] | 4.5 (≈ 2.44 µM) | 14.6 (≈ 7.93 µM) | 4.2 (≈ 2.28 µM) | 1563 | – | – | – | – | –
5 | N=C(N)NCCC[C@H](N)C(=O)N[C@@H](Cc1c[nH]c2ccccc12)C(=O)NCCCN(CCCCN(CCCNC(=O)[C@H](Cc1c[nH]c2ccccc12)NC(=O)[C@@H](N)CCCNC(=N)N)CCCNC(=O)[C@H](Cc1c[nH]c2ccccc12)NC(=O)[C@@H](N)CCCNC(=N)N)CCCNC(=O)[C@H](Cc1c[nH]c2ccccc12)NC(=O)[C@@H](N)CCCNC(=N)N [POPAM-(WR)4, POPAM-(WR—NH2)3] | – | – | – | – | 0.57 ± 0.12 | 0.37 ± 0.13 | 291 | – | –
6 | NCCCC[C@H](N)C(=O)N[C@@H](Cc1c[nH]c2ccccc12)C(=O)NCCN(CCNC(=O)[C@H](Cc1c[nH]c2ccccc12)NC(=O)[C@@H](N)CCCCN)CCNC(=O)[C@H](Cc1c[nH]c2ccccc12)NC(=O)[C@@H](N)CCCCN [TAEA-(WK)3, TAEA-(WK—NH2)3] | – | – | – | – | 6.87 ± 0.01 | 4.12 ± 0.58 | 5423 | 789 | 1316
7 | N=C(N)NCCC[C@H](N)C(=O)N[C@@H](Cc1c[nH]c2ccccc12)C(=O)NCCN(CCNC(=O)[C@H](Cc1c[nH]c2ccccc12)NC(=O)[C@@H](N)CCCNC(=N)N)CCNC(=O)[C@H](Cc1c[nH]c2ccccc12)NC(=O)[C@@H](N)CCCNC(=N)N [TAEA-(WR)3, TAEA-(WR—NH2)3] | – | – | – | – | 2.07 ± 0.22 | 0.97 ± 0.02 | 3073 | – | –
